Laboratory results published in patent US10207002B2, “Sustained release formulation and tablets prepared therefrom” (Merck Sharp & Dohme Corp., priority 2015, dated 2019).

Experiments:
[1] = Solubility in a basic environment, such as the intestine; assay type: physicochemical
[2] = Bioavailability on co-administration with a proton-pump inhibitor; assay type: in vivo; conditions: co-administered with a proton-pump inhibitor

| Solubility [1] | Bioavailability [2] | Structure (SMILES) |
| --- | --- | --- |
| poorly soluble | sharp drop in bioavailability | COCCOc1ccc(N2CCN(CCn3ncc4c3nc(N)n3nc(-c5ccco5)nc43)CC2)cc1 [Formula IA, preladenant] |
| poorly soluble | – | CC#Cc1nc2c3cnn(CCN4CCN(c5cc6c(C)noc6cc5F)CC4)c3nc(N)n2n1 [Formula IB] |
